Test results: patent US12144786B2 (priority 2020, dated 2024)
Ends that are not written are not given here.

How the values were obtained:
[1] = in vivo; cited from earlier work
[2] = in vivo; cited from earlier work; remark: listed apart in the source
[3] = in vivo, cited from earlier work
[4] = in vivo; cited from earlier work; remark: listed apart in the source
[5] = test system: animal models of brain injury and stroke; conditions: cited from earlier work
[6] = test system: patients with eating disorders; conditions: 10-hour infusions of 20 mg/hour; cited from earlier work
patients = conditions: usually; rarely longer than 2 hours; cited from earlier work
[7] = 10 4-hour infusions of up to 20 mg/hour; cited from earlier work
chronic anorexia nervosa = experiment: Case study: ketogenic diet followed by IV ketamine infusions in a patient with chronic anorexia nervosa; type: in vivo, human
[8] = test system: patients treated for depression; conditions: 6630 patients, six or more repeated parenteral infusions for depression; cited from earlier work
healthy volunteers = conditions: 80-minute infusion of 0.4 or 0.8 mg/kg, 3 days later; cited from earlier work
[9] = up to 4 doses of 0.1-0.5 mg/kg IV over 2 weeks, 8-month follow-up; cited from earlier work
[10] = test system: rodent models of depression; conditions: cited from earlier work

For CN[C@@]1(c2ccccc2Cl)CCCCC1=O [(R)-ketamine], the “antidepressant effects and psychotomimetic side effects” value [1] is listed as “rapid-onset and sustained antidepressant effects without psychotomimetic side effects”.

For Cc1ncc2n1-c1ccc(Cl)cc1C(c1ccccc1F)=NC2 [Midazolam], the “half-life (t½)” value [2] is given as 2.5 h.

In the case of “Thr-Pro-Pro-Thr-NH2 (TPPT-NH2) [Rapastinel, amidated tetrapeptide, NMDA receptor glycine site partial agonist]”, the oral activity ([3]; po) is listed as “not active orally” and the “blood brain barrier crossing” value [3] is listed as “rapidly crosses the blood brain barrier”.

In the case of N[C@@]1(c2ccccc2Cl)CCC[C@@H](O)C1=O [(2R,6R)-HNK], the hypnotic effect [4] is listed as “non-hypnotic” and the “role in antidepressant effects of ketamine” value [4] is listed as “essential for the antidepressant effects of ketamine”.

For C[C@@H]([C@@H](O)c1ccc(O)cc1)N1CCC(O)(c2ccccc2)CC1 [CP-101,606], the protection [5] is listed as “protective”.

In the case of CNC1(c2ccccc2Cl)CCCCC1=O (racemic) [ketamine, (RS)-2-(2-chlorophenyl)-2-(methylamino)cyclohexanone], the “side effects (headache, nausea, sedation, revival of distant memories)” value [6] is listed as “no longer occurred after the first infusion or were no longer seen as unpleasant”, the “duration of dissociative symptoms” value (patients) is listed as “less than 60 minutes” and the “patients experiencing restlessness, headaches, or significant heart rate increases” value [7] is listed as 7-13%. For the same compound, the “onset of effect on anorexic thoughts (AN voice) after first infusion” value (chronic anorexia nervosa; 40-minute IV infusion 0.75 mg/kg (42.68 mg) after 3 months on ketogenic diet, moderate ketosis for 14 days) was “Within one hour, they felt the AN voice was weakening”, the “anorexia symptoms by the end of treatment” value (chronic anorexia nervosa; four infusions over 15 days (0.75, 1.0, 1.1, 1.2 mg/kg) on ketogenic diet) was “they no longer felt anorexic any more” and the “compulsive exercise by the end of treatment” value (chronic anorexia nervosa; four infusions over 15 days on ketogenic diet) was “They could exercise and stop exercising at their own wish”. The BMI (chronic anorexia nervosa; throughout the treatment (duration 15 days) and months after) was ~20.8, the “patients with a side effect that led to discontinuation of treatment” value [8] was 0.7% and the residual effects (healthy volunteers) was “does not result in any residual effects”. For the same compound, the adverse events [9] was “no adverse events”.

For C[C@@H](CN1CCC(Cc2ccccc2)CC1)[C@@H](O)c1ccc(O)cc1 [Ro 25-6981], the antidepressant actions [10] is given as “rapid antidepressant actions”.
